Test system: SWISS mouse
Test: convulsive crises induced by intraperitoneal pentylenetetrazole in the SWISS mouse
Type: in vivo
Details: given after pentylenetetrazole about 85 mg/kg i.p.
Description: During the first stages of the preparation and development of epileptic drugs it is necessary to generate experimental convulsive crises in an animal. The experimental convulsive crises make it possible to identify anticonvulsants, the anti-epileptic properties of which will be subsequently verified.
That is the reason why convulsive crises are induced in the SWISS mouse by the intraperitoneal injection of pentylenetetrazole at a dose of about 85 mg/kg.
Pentylenetetrazole is a bulbar excitant which, at this dose, causes convulsive crises in the mouse and the rabbit in a classical fashion with several well-characterized stages.
The subsequent intraperitoneal administration of the substance of formula I according to the invention brought about a suppression of these crises under the following conditions:
The subsequent intraperitoneal administration of N-γ-D-glutamyl-D-aspartic was also carried out and brought about the suppression of crises under the following conditions: […]

[1] = dose 285 nmol/kg intraperitoneal

| SMILES | suppression of crises, % of the animals (dose 71 nmol/kg intraperitoneal) [%] | suppression of crises, % of the animals [1] [%] | suppression of crises, % of the animals (dose 142.5 nmol/kg intraperitoneal) [%] | suppression of crises, % of the animals (dose 570 nmol/kg intraperitoneal) [%] |
| --- | --- | --- | --- | --- |
| N[C@H](CCC(=O)N[C@H](CC(=O)O)C(=O)O)C(=O)O [N-γ-D-glutamyl-D-aspartic, N-γ-D-glutamyl-D-aspartic acid] | 40 | 60 | – | – |
| N[C@@H](CCC(=O)N[C@@H](CC(=O)O)C(=O)O)C(=O)O [formula I, N-γ-L-glutamyl-L-aspartate] | – | 50 | 50 | 70 |
